# Assay: gradient 5% acetonitrile 3 min, to 50% in 2 min, to 85% in 15 min, held 3 min, 100 µL/min
# Conditions: column: Zorbax Extend-C18 2.1 x 50 mm; eluents: water / acetonitrile, 0.1% formic acid
# How it was run: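 The system's dead and dwell volumes were 40 μL and 900 μL, with a Zorbax Extend-C18 column (2.1 × 50 mm, 1.8 μm) run at 100 μL/min in water and acetonitrile containing 0.1% formic acid each. Pure standards were analyzed in mixtures of ~100 molecules by HPLC–quadrupole time-of-flight mass spectrometry in positive and negative ionization mode. Retention time was assigned from computationally picked, manually inspected adduct peaks.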
row,Compound,RP-LC retention time
1,C=CCn1c(C)c(CC(=O)N2CCCC2)c(=O)n2nc(-c3ccc(C)cc3)nc12,789 s
2,CO[C@@H]1COCC[C@@H]1N[C@@H]1CC[C@@](C(=O)N2CCc3ncc(C(F)(F)F)cc3C2)(C(C)C)C1,709 s
3,CC1(C)CC(=O)c2cn(-c3ccccc3)c(=O)c(C(=O)N3CCN(c4ccccn4)CC3)c2C1,622 s
4,Cc1ccc(CC(=O)NC2CCN(c3ccc(C)c(C)c3)C2=O)cc1 (stereo not drawn),904 s
5,CCc1nc(-c2cccc(-c3noc(COc4ccc(F)cc4)n3)c2)cs1,1290 s
6,Cc1ccc(-n2c(C)c(C)c3c(=O)n(CC(=O)N(C)Cc4ccco4)cnc32)cc1,907 s
7,Cn1c(N2CCC(C(=O)Nc3ccc(Cl)cc3)CC2)cc(=O)n(C)c1=O,732 s
8,Cc1cc(C(=O)N2CCN(C(=O)C3CC3c3cccs3)CC2)c(C)o1 (stereo not drawn),767 s
9,COc1ccc(NC(=O)CN2c3ccc(F)cc3-c3ccccc3S2(=O)=O)c(OC)c1,975 s
10,COc1ccc(OCC(=O)N2CCc3c(c(-c4nnc(-c5ccccc5Cl)o4)nn3C)C2)cc1,1010 s
11,CSc1ccc(CNC(=O)C2c3ccccc3CCN2C(C)=O)cc1 (stereo not drawn),790 s
12,CN1CCN(CCNC(=O)CN2C(=O)C3CCCCN3c3ccc(C(=O)N(C)C)cc32)CC1 (stereo not drawn),578 s
13,CCn1c(C2CC(=O)N(Cc3ccccc3)C2)nc2ccccc21 (stereo not drawn),650 s
14,O=C(Nc1c(C(=O)N2CCN(c3ccccn3)CC2)oc2ccccc12)c1cccc([N+](=O)[O-])c1,744 s
15,Cc1ccc(C)c(S(=O)(=O)N2CCN(c3ccc(-n4nc(C)c(C)c4C)nn3)CC2)c1,995 s
16,COc1ccc(C)cc1NC(=O)N1CCCC(C)(C(=O)NCc2ccc(C)cc2)C1 (stereo not drawn),968 s
17,CCOC(=O)C1=C(C)NC2=C(C(=O)C(C(=O)OC)C(C)C2)C1c1ccccc1Cl (stereo not drawn),965 s
18,COc1ccc(NC(=O)CN2CCC(c3nc(-c4cccs4)no3)CC2)cc1,670 s
19,Cn1c(Cn2c(=O)sc3ccccc32)nnc1SCC(=O)N1CCc2ccccc21,746 s

row,Compound,RP-LC retention time
1,Cc1ccc(-c2nc(-c3ccc4nnc(C)n4c3)no2)cc1,968 s
2,Cc1noc(C)c1Cc1ccc(C(=O)N(C)C2CCc3nnc(C)n3CC2)o1 (stereo not drawn),602 s
3,Cc1cc(C)c2c(N3CCCCC3)nc(C(=O)NCC3CCCO3)nc2n1 (stereo not drawn),621 s
4,Brc1ccc(-c2ccc(CNCC3CCNCC3)o2)cc1,597 s
5,Cc1nc(-c2csc(S(=O)(=O)N3CCC(C(=O)NCc4ccc(F)cc4)CC3)c2)no1,981 s
6,CC12CCC3C(CC=C4CC(O)CCC43C)C1C/C(=C\N1CCCC1)C2=O (stereo not drawn),943 s
7,COc1ccc(NS(=O)(=O)c2cc3c(s2)CCN(C(=O)C2CCC2)C3)cc1Cl,893 s
8,COc1ccc(OC)c(-c2cc(C(=O)N3CCC(C(=O)NCC(F)(F)F)CC3)[nH]n2)c1,705 s
9,CC1CCC(NC(=O)C2CCCN(C(=O)c3cc(-c4cccnc4)n[nH]3)C2)CC1 (stereo not drawn),636 s
10,Cc1ccccc1NC(=O)N1CCC2(CC1)NC(=O)c1ccc(F)cc1N2C,747 s
11,CCCNC(=O)N1C[C@@H]2CCCN3CCC[C@@H]([C@H]23)[C@H]1CCCC(=O)NCC1CC1,576 s
12,FC(F)(F)c1cccc(-c2ccc(CNCC3CCNCC3)o2)c1,580 s
13,Brc1cccc(-c2nnc(Cc3nc(-c4cccnc4)no3)o2)c1,845 s
14,Cn1cc(-c2cc3n(n2)CCC(=O)N3CC(=O)NCCC2=CCCCC2)c2ccccc21,891 s
15,COc1ccc(NC(=O)C2CCN(S(=O)(=O)c3ccc4[nH]c5c(c4c3)CCCCC5)CC2)cc1,1040 s
16,COc1ccc(NC(=O)c2cn(-c3cc(N4CCC(C)CC4)ncn3)cn2)c(OC)c1,1150 s
17,CCN(CC)CCNC(=O)C1CCN(c2nnc3ccc(Cl)cn23)CC1,565 s
18,O=C(NCC1CC1)C1CC(=O)N(c2ccc3c(c2)CCN3C(=O)C2CCC2)C1 (stereo not drawn),719 s
19,CCc1nc2cc(-c3noc(Cc4ccc(OC)cc4)n3)ccc2o1,1030 s

row,Compound,RP-LC retention time
1,COc1cc2c(cc1OC)C1C(C(=O)NCCCN3CCC(C)CC3)c3ccccc3C(=O)N1CC2 (stereo not drawn),629 s
2,CC(C)Oc1ccc(C(=O)O)cc1,823 s
3,Cc1cc(C)cc(NC(=O)Cc2ccc(OC(C)(C)C(=O)O)cc2)c1,969 s
4,COc1ccc(S(=O)(=O)Nc2ccc(C)n(CC(=O)O)c2=O)cc1,678 s
5,Cc1ccccc1-c1cc(C(=O)N2CCC(NC(=O)C3CCCC3)CC2)[nH]n1,712 s
6,CCCOc1ccc(-c2csc(NC(=O)CN3C(=O)CCC3=O)n2)cc1,816 s
7,CCN(Cc1ccccc1)C(=O)c1ncn2c1C(=O)N(CC)C(C)(C(=O)NC1CCCC1)C2 (stereo not drawn),734 s
8,CCSc1nnc(-c2nn(C)c3c2CN(C(=O)c2ccccc2C)CC3)n1C,734 s
9,O=C(Cn1c2ccccc2n2c(=O)cc(-c3ccncc3)nc12)NC1CCCC1,660 s
10,COc1ccc(C)cc1NC(=O)C1CCCN(S(=O)(=O)c2c[nH]c(C(=O)N3CCCC3)c2)C1 (stereo not drawn),824 s
11,O=C(CN1CCC(c2nc(-c3cccs3)no2)CC1)N1CCN(c2ccccc2)CC1,702 s
12,O=C(c1n[nH]c2c1CCCC2)N1CCn2c(nnc2-c2ccccc2)C1,645 s
13,CCc1nnc([C@@H]2CC(F)(F)CN2C(=O)c2ccc3nc[nH]c3c2)o1,540 s
14,Cc1cc(C(=O)NC2CCCCC2)nc2cc(-c3cccs3)nn12,1220 s
15,Cc1cccc(CNS(=O)(=O)c2cc(-c3[nH]ncc3C(=O)N3CCCC3)oc2C)c1,744 s
16,CCCN1CCN(c2cc(C(=O)O)c3cc(NS(=O)(=O)c4ccc(C)cc4C)ccc3n2)CC1,937 s
17,COc1ccc(NC(=O)C(C)n2cnc3nc4c(cc3c2=O)CCCC4)cc1OC (stereo not drawn),685 s
18,CC1CCCN(CC2CCN(S(=O)(=O)Cc3c(F)cccc3Cl)CC2)C1 (stereo not drawn),685 s
19,O=C(Nc1nc(-c2ccncc2)cs1)C1CCCCC1,588 s

# Further lines, results first:
row,RP-LC retention time,Compound
1,1080 s,COc1ccccc1N1CCN(c2cc(SCC(=O)Nc3ccc(Cl)cc3)ncn2)CC1
2,1180 s,Cc1sc(NC(=O)c2ccc(COc3ccc(F)cc3)o2)nc1-c1ccccc1
3,786 s,CCCc1nnsc1C(=O)Nc1ccc2c(c1)CN(C(=O)c1ccco1)CC2
4,938 s,O=C(NCc1ccc(F)cc1F)C1CCCN(c2nc3ccsc3c(=O)n2Cc2ccccc2)C1 (stereo not drawn)
5,629 s,Cc1cc(C(=O)N2CCCn3nc(-c4ccc(F)cc4)cc3C2)nn1C
6,899 s,COCc1cnc2c(c1SCc1ccccc1F)c(=O)n(C)c(=O)n2C
7,857 s,Cc1ccc(-n2c(=O)n(C)c(=O)c3cc(C(=O)Nc4ccccc4C(N)=O)cnc32)cc1
8,1110 s,Cc1noc(-c2cccn2Cc2cccc(Cl)c2)n1
9,685 s,COc1ccc(NC(=O)Cc2nnc(-c3ccc4ncccc4c3)o2)cc1
10,1130 s,Cc1cccc(-c2nc(-c3ccc4c(c3)oc(=O)n4C)no2)c1
11,1060 s,Cc1cccc(Sc2nccnc2N2CCCC(C(=O)NCc3ccc(C)o3)C2)c1 (stereo not drawn)
12,951 s,O=C(c1nnn2c1COC(c1ccc(Cl)cc1)C2)N1CCN(C(=O)c2c(F)cccc2F)CC1 (stereo not drawn)
13,558 s,O=C(Nc1ccccc1C(F)(F)F)N1CCc2nc[nH]c2C1
14,667 s,CCc1nccn1Cc1nc(-c2cccc(Cl)c2)no1
15,706 s,O=C(CSc1ncnc2ccccc12)NCCc1ccccc1
16,632 s,CC(C)n1c(CCNC(=O)c2c(F)cccc2F)nc2cccnc21

row,RP-LC retention time,Compound
1,874 s,CCOc1ccc2nc(NC(=O)Cc3csc4nc(-c5ccccc5)cn34)sc2c1
2,979 s,O=C(Cn1nc(N2CCSCC2)c2ccccc2c1=O)Nc1ccccc1C(F)(F)F
3,877 s,COc1cccc(NC(=O)N2CCCC2c2nc(-c3cccc(C)c3)no2)c1 (stereo not drawn)
4,1060 s,CCOC(=O)C1CCN(C(=O)c2ccc(-c3nc4ccccc4n(CC(C)C)c3=O)cc2)CC1
5,949 s,CC(C)CNC(=O)CCc1nc2ccccc2n(CC(=O)Nc2ccc(C(C)C)cc2)c1=O
6,626 s,CSc1ncccc1C(=O)NCC(O)c1ccsc1 (stereo not drawn)
7,586 s,Cc1ccccc1NC(=O)c1cn2c(n1)CCCC2
8,1080 s,Cc1c(-c2noc(-c3cccc(F)c3)n2)nnn1Cc1ccccc1
9,761 s,Cc1ccc(-c2nc3nc(C)c(CC(=O)NC(C)C)c(C)n3n2)cc1
10,663 s,Cc1c(-c2cccc(NC(=O)C3CCCCC3)c2)nc2ncccn12
11,930 s,Cc1cccc(NC(=O)Cn2nc3c(Oc4ccc(Cl)cc4)nccn3c2=O)c1
12,834 s,CCn1c(=O)n(Cc2ccccc2C(F)(F)F)c2cncnc21
13,955 s,Cc1ccsc1CCNC(=O)C1CCN(S(=O)(=O)c2c(C)nn(-c3ccccc3)c2C)CC1
14,670 s,CCOc1ccccc1NC(=O)Nc1cccc(-c2ccc(N3CCOCC3)nn2)c1
15,897 s,Cc1nnc(SCC(=O)N2c3ccccc3CCc3ccccc32)s1
